Measured values reported in patent publication US12304890B2, “R-type pyridyloxycarboxylic acid, salt and ester derivative thereof, and preparation method therefor, and herbicidal composition and application thereof” (Qingdao Kingagroot Chemical Compound Co., Ltd., priority 2018, dated 2025).

How the values were obtained:
Format in all cases: in vivo
Echinochloa crusgalli = assay: Post-emergence test experiment, Echinochloa crusgalli; conditions: 1000 g a.i./ha, 3 weeks in greenhouse, fresh weight inhibition
How it was run: (§1)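 Weed and crop seeds were sown in soil-filled pots, covered with 0.5-2 cm soil and grown in a greenhouse. Plants were sprayed at the 2-3 leaf stage, 2 weeks after sowing. Compounds were in acetone with tween-80 plus methyl oleate emulsible concentrate synergist (1.5 liters per hectare). Fresh weight inhibition was scored after 3 weeks.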

Digitaria sanguinalis = assay: Post-emergence test experiment, Digitaria sanguinalis; conditions: 1000 g a.i./ha, 3 weeks in greenhouse, fresh weight inhibition
How it was run: as §1

[1] = tested on: Monocotyledonous and dicotyledonous weed seeds and main crop seeds; assay: Post-emergence test experiment, other weeds and crops (Table 4, 1000 g a.i./ha); conditions: 3 weeks in greenhouse, fresh weight inhibition
How it was run: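 Weed and crop seeds (wheat, corn, rice, soybean, cotton, oilseed, millet, sorghum) sown in soil pots in a greenhouse and sprayed at 2-3 leaf stage, 2 weeks after sowing. Compound in acetone/tween-80 with methyl oleate concentrate (1.5 L/ha) as synergist. Effect recorded as fresh-weight growth inhibition rate.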

C=CCOC(=O)C(C)Oc1nc(F)c(Cl)c(N)c1Cl (centres unmarked) [Compound 2-273]
Activity level (growth inhibition rate), Echinochloa crusgalli (Echinochloa crusgalli): 5 (Level 5: the growth inhibition rate is greater than 85%) | Activity level (growth inhibition rate), Digitaria sanguinalis (Digitaria sanguinalis): 5 (Level 5: the growth inhibition rate is greater than 85%) | Activity level (growth inhibition rate), Abutilon theophrasti Medic. [1]: 5 (Level 5: the growth inhibition rate is greater than 85%) | Activity level (growth inhibition rate), Galium aparine [1]: 5 (Level 5: the growth inhibition rate is greater than 85%) | Activity level (growth inhibition rate), Monochoria Vaginalis [1]: 5 (Level 5: the growth inhibition rate is greater than 85%)

CC(Oc1nc(F)c(Cl)c(N)c1Cl)C(=O)OCC#N (centres unmarked) [Compound 2-267]
Activity level (growth inhibition rate), Echinochloa crusgalli (Echinochloa crusgalli): 5 (Level 5: the growth inhibition rate is greater than 85%) | Activity level (growth inhibition rate), Digitaria sanguinalis (Digitaria sanguinalis): 5 (Level 5: the growth inhibition rate is greater than 85%) | Activity level (growth inhibition rate), Abutilon theophrasti Medic. [1]: 5 (Level 5: the growth inhibition rate is greater than 85%) | Activity level (growth inhibition rate), Galium aparine [1]: 5 (Level 5: the growth inhibition rate is greater than 85%) | Activity level (growth inhibition rate), Monochoria Vaginalis [1]: 5 (Level 5: the growth inhibition rate is greater than 85%)

COC(=O)[C@@H](C)Oc1nc(F)c(Cl)c(NCc2ccco2)c1Cl [Compound 2-378]
Activity level (growth inhibition rate), Echinochloa crusgalli (Echinochloa crusgalli): 5 (Level 5: the growth inhibition rate is greater than 85%) | Activity level (growth inhibition rate), Digitaria sanguinalis (Digitaria sanguinalis): 5 (Level 5: the growth inhibition rate is greater than 85%) | Activity level (growth inhibition rate), Abutilon theophrasti Medic. [1]: 5 (Level 5: the growth inhibition rate is greater than 85%) | Activity level (growth inhibition rate), Galium aparine [1]: 5 (Level 5: the growth inhibition rate is greater than 85%) | Activity level (growth inhibition rate), Monochoria Vaginalis [1]: 5 (Level 5: the growth inhibition rate is greater than 85%)

CC(C)OC(=O)[C@@H](C)Oc1nc(F)c(Cl)c(N)c1Cl [Compound 2-75]
Activity level (growth inhibition rate), Echinochloa crusgalli (Echinochloa crusgalli): 5 (Level 5: the growth inhibition rate is greater than 85%) | Activity level (growth inhibition rate), Digitaria sanguinalis (Digitaria sanguinalis): 5 (Level 5: the growth inhibition rate is greater than 85%) | Activity level (growth inhibition rate), Abutilon theophrasti Medic. [1]: 5 (Level 5: the growth inhibition rate is greater than 85%) | Activity level (growth inhibition rate), Galium aparine [1]: 5 (Level 5: the growth inhibition rate is greater than 85%) | Activity level (growth inhibition rate), Monochoria Vaginalis [1]: 5 (Level 5: the growth inhibition rate is greater than 85%)

C[C@@H](Oc1nc(F)c(Cl)c(N)c1Cl)C(=O)OCc1cccnc1 [Compound 2-346]
Activity level (growth inhibition rate), Echinochloa crusgalli (Echinochloa crusgalli): 5 (Level 5: the growth inhibition rate is greater than 85%) | Activity level (growth inhibition rate), Digitaria sanguinalis (Digitaria sanguinalis): 5 (Level 5: the growth inhibition rate is greater than 85%) | Activity level (growth inhibition rate), Abutilon theophrasti Medic. [1]: 5 (Level 5: the growth inhibition rate is greater than 85%) | Activity level (growth inhibition rate), Galium aparine [1]: 5 (Level 5: the growth inhibition rate is greater than 85%) | Activity level (growth inhibition rate), Monochoria Vaginalis [1]: 5 (Level 5: the growth inhibition rate is greater than 85%)

CC(Oc1nc(F)c(Cl)c(N)c1Cl)C(=O)OCc1ccc(C(F)(F)F)cc1 (centres unmarked) [Compound 2-331]
Activity level (growth inhibition rate), Echinochloa crusgalli (Echinochloa crusgalli): 5 (Level 5: the growth inhibition rate is greater than 85%) | Activity level (growth inhibition rate), Digitaria sanguinalis (Digitaria sanguinalis): 5 (Level 5: the growth inhibition rate is greater than 85%) | Activity level (growth inhibition rate), Abutilon theophrasti Medic. [1]: 5 (Level 5: the growth inhibition rate is greater than 85%) | Activity level (growth inhibition rate), Galium aparine [1]: 5 (Level 5: the growth inhibition rate is greater than 85%) | Activity level (growth inhibition rate), Monochoria Vaginalis [1]: 5 (Level 5: the growth inhibition rate is greater than 85%)

CC(Oc1nc(F)c(Cl)c(N)c1Cl)C(=O)OCc1ccc(F)cc1 (centres unmarked) [Compound 2-312]
Activity level (growth inhibition rate), Echinochloa crusgalli (Echinochloa crusgalli): 5 (Level 5: the growth inhibition rate is greater than 85%) | Activity level (growth inhibition rate), Digitaria sanguinalis (Digitaria sanguinalis): 5 (Level 5: the growth inhibition rate is greater than 85%) | Activity level (growth inhibition rate), Abutilon theophrasti Medic. [1]: 5 (Level 5: the growth inhibition rate is greater than 85%) | Activity level (growth inhibition rate), Galium aparine [1]: 5 (Level 5: the growth inhibition rate is greater than 85%) | Activity level (growth inhibition rate), Monochoria Vaginalis [1]: 5 (Level 5: the growth inhibition rate is greater than 85%)

CCCCCCCCOC(=O)[C@@H](C)Oc1nc(F)c(Cl)c(N)c1Cl [Compound 2-155]
Activity level (growth inhibition rate), Echinochloa crusgalli (Echinochloa crusgalli): 5 (Level 5: the growth inhibition rate is greater than 85%) | Activity level (growth inhibition rate), Digitaria sanguinalis (Digitaria sanguinalis): 5 (Level 5: the growth inhibition rate is greater than 85%) | Activity level (growth inhibition rate), Abutilon theophrasti Medic. [1]: 5 (Level 5: the growth inhibition rate is greater than 85%) | Activity level (growth inhibition rate), Galium aparine [1]: 5 (Level 5: the growth inhibition rate is greater than 85%) | Activity level (growth inhibition rate), Monochoria Vaginalis [1]: 5 (Level 5: the growth inhibition rate is greater than 85%)

Cc1ccc(COC(=O)C(C)Oc2nc(F)c(Cl)c(N)c2Cl)cc1 (centres unmarked) [Compound 2-306]
Activity level (growth inhibition rate), Echinochloa crusgalli (Echinochloa crusgalli): 5 (Level 5: the growth inhibition rate is greater than 85%) | Activity level (growth inhibition rate), Digitaria sanguinalis (Digitaria sanguinalis): 5 (Level 5: the growth inhibition rate is greater than 85%) | Activity level (growth inhibition rate), Abutilon theophrasti Medic. [1]: 5 (Level 5: the growth inhibition rate is greater than 85%) | Activity level (growth inhibition rate), Galium aparine [1]: 5 (Level 5: the growth inhibition rate is greater than 85%) | Activity level (growth inhibition rate), Monochoria Vaginalis [1]: 5 (Level 5: the growth inhibition rate is greater than 85%)

CC(Oc1nc(F)c(Cl)c(N)c1Cl)C(=O)OC1CCCO1 (centres unmarked) [Compound 2-297]
Activity level (growth inhibition rate), Echinochloa crusgalli (Echinochloa crusgalli): 5 (Level 5: the growth inhibition rate is greater than 85%) | Activity level (growth inhibition rate), Digitaria sanguinalis (Digitaria sanguinalis): 5 (Level 5: the growth inhibition rate is greater than 85%) | Activity level (growth inhibition rate), Abutilon theophrasti Medic. [1]: 5 (Level 5: the growth inhibition rate is greater than 85%) | Activity level (growth inhibition rate), Galium aparine [1]: 5 (Level 5: the growth inhibition rate is greater than 85%) | Activity level (growth inhibition rate), Monochoria Vaginalis [1]: 5 (Level 5: the growth inhibition rate is greater than 85%)

CC(Oc1nc(F)c(Cl)c(N)c1Cl)C(=O)OCC(=O)N(C)C (centres unmarked) [Compound 2-289]
Activity level (growth inhibition rate), Echinochloa crusgalli (Echinochloa crusgalli): 5 (Level 5: the growth inhibition rate is greater than 85%) | Activity level (growth inhibition rate), Digitaria sanguinalis (Digitaria sanguinalis): 5 (Level 5: the growth inhibition rate is greater than 85%) | Activity level (growth inhibition rate), Abutilon theophrasti Medic. [1]: 5 (Level 5: the growth inhibition rate is greater than 85%) | Activity level (growth inhibition rate), Galium aparine [1]: 5 (Level 5: the growth inhibition rate is greater than 85%) | Activity level (growth inhibition rate), Monochoria Vaginalis [1]: 5 (Level 5: the growth inhibition rate is greater than 85%)

CC(Oc1nc(F)c(Cl)c(N)c1Cl)C(=O)OCc1ccc(Cl)cc1 (centres unmarked) [Compound 2-318]
Activity level (growth inhibition rate), Echinochloa crusgalli (Echinochloa crusgalli): 5 (Level 5: the growth inhibition rate is greater than 85%) | Activity level (growth inhibition rate), Digitaria sanguinalis (Digitaria sanguinalis): 5 (Level 5: the growth inhibition rate is greater than 85%) | Activity level (growth inhibition rate), Abutilon theophrasti Medic. [1]: 5 (Level 5: the growth inhibition rate is greater than 85%) | Activity level (growth inhibition rate), Galium aparine [1]: 5 (Level 5: the growth inhibition rate is greater than 85%) | Activity level (growth inhibition rate), Monochoria Vaginalis [1]: 5 (Level 5: the growth inhibition rate is greater than 85%)

CCC(OC)OC(=O)C(C)Oc1nc(F)c(Cl)c(N)c1Cl (centres unmarked) [Compound 2-291]
Activity level (growth inhibition rate), Echinochloa crusgalli (Echinochloa crusgalli): 5 (Level 5: the growth inhibition rate is greater than 85%) | Activity level (growth inhibition rate), Digitaria sanguinalis (Digitaria sanguinalis): 5 (Level 5: the growth inhibition rate is greater than 85%) | Activity level (growth inhibition rate), Abutilon theophrasti Medic. [1]: 5 (Level 5: the growth inhibition rate is greater than 85%) | Activity level (growth inhibition rate), Galium aparine [1]: 5 (Level 5: the growth inhibition rate is greater than 85%) | Activity level (growth inhibition rate), Monochoria Vaginalis [1]: 5 (Level 5: the growth inhibition rate is greater than 85%)

CC(Oc1nc(F)c(Cl)c(N)c1Cl)C(=O)SCc1ccc(F)cc1 (centres unmarked) [Compound 2-313]
Activity level (growth inhibition rate), Echinochloa crusgalli (Echinochloa crusgalli): 5 (Level 5: the growth inhibition rate is greater than 85%) | Activity level (growth inhibition rate), Digitaria sanguinalis (Digitaria sanguinalis): 5 (Level 5: the growth inhibition rate is greater than 85%) | Activity level (growth inhibition rate), Abutilon theophrasti Medic. [1]: 5 (Level 5: the growth inhibition rate is greater than 85%) | Activity level (growth inhibition rate), Galium aparine [1]: 5 (Level 5: the growth inhibition rate is greater than 85%) | Activity level (growth inhibition rate), Monochoria Vaginalis [1]: 5 (Level 5: the growth inhibition rate is greater than 85%)

COC(=O)OC(C)OC(=O)C(C)Oc1nc(F)c(Cl)c(N)c1Cl (centres unmarked) [Compound 2-296]
Activity level (growth inhibition rate), Echinochloa crusgalli (Echinochloa crusgalli): 5 (Level 5: the growth inhibition rate is greater than 85%) | Activity level (growth inhibition rate), Digitaria sanguinalis (Digitaria sanguinalis): 5 (Level 5: the growth inhibition rate is greater than 85%) | Activity level (growth inhibition rate), Abutilon theophrasti Medic. [1]: 5 (Level 5: the growth inhibition rate is greater than 85%) | Activity level (growth inhibition rate), Galium aparine [1]: 5 (Level 5: the growth inhibition rate is greater than 85%) | Activity level (growth inhibition rate), Monochoria Vaginalis [1]: 5 (Level 5: the growth inhibition rate is greater than 85%)

CC(C)CCSC(=O)[C@@H](C)Oc1nc(F)c(Cl)c(N)c1Cl [Compound 2-90]
Activity level (growth inhibition rate), Echinochloa crusgalli (Echinochloa crusgalli): 5 (Level 5: the growth inhibition rate is greater than 85%) | Activity level (growth inhibition rate), Digitaria sanguinalis (Digitaria sanguinalis): 5 (Level 5: the growth inhibition rate is greater than 85%) | Activity level (growth inhibition rate), Abutilon theophrasti Medic. [1]: 5 (Level 5: the growth inhibition rate is greater than 85%) | Activity level (growth inhibition rate), Galium aparine [1]: 5 (Level 5: the growth inhibition rate is greater than 85%) | Activity level (growth inhibition rate), Monochoria Vaginalis [1]: 5 (Level 5: the growth inhibition rate is greater than 85%)
